Legend:
[1] = Plasma stability (37° C., pH 7.4), rat; format: in vitro ADME, Sprague-Dawley rat; conditions: test article 1 μM, 37° C.; for half-life at 1 μM: male, Sprague-Dawley, rat, plasma, pH 7.4, rat plasma, pH 7.4, read-out: Half-life; for % Remaining of Initial (n = 1), 0 min / % Remaining of Initial (n = 1), 15 min / % Remaining of Initial (n = 1), 30 min / % Remaining of Initial (n = 1), 60 min / % Remaining of Initial (n = 1), 120 min: rat plasma; for % Remaining of Initial (n = 1), 0 min: pH 7.4, 0 min; for % Remaining of Initial (n = 1), 15 min: pH 7.4, 15 min; for % Remaining of Initial (n = 1), 30 min: pH 7.4, 30 min; for % Remaining of Initial (n = 1), 60 min: pH 7.4, 60 min; for % Remaining of Initial (n = 1), 120 min: pH 7.4, 120 min
Experimental: (§1) Studies were carried out in mixed-gender human plasma (Lot #GLP530-5), male Sprague-Dawley rat (Lot #RAT297944, RAT313140), male CD-1 mouse (Lot #MSE237700), and male Beagle dog (Lot #BGL87670, BGL82614), collected on sodium heparin. Plasma was adjusted to pH 7.4 prior to initiating the experiments. DMSO stocks were first prepared for the test articles. Aliquots of the DMSO solutions were dosed into 700 μL of plasma, which had been pre-warmed to 37° C., at a final test article concentration of 1 μM. […] Samples were stored at 4° C. until the end of the experiment. After the final time point was sampled, the plate was mixed and then centrifuged at 3,000 rpm for 10 minutes. Calibration standards were prepared in matched matrix. […] Analytical conditions are outlined in Appendix 8-1.
as §1, with “#AS1650-2),” for “#GLP530-5),”, “#RAT297944),” for “#RAT297944, RAT313140),”, “CD-I” for “CD-1”, “#BGL91384),” for “#BGL87670, BGL82614),”, “10-1.” for “8-1.”
Studies were carried out in mixed-gender human plasma (Lot #AS1650-2), male Sprague-Dawley rat (Lot #RAT297944), male CD-1 mouse (Lot #MSE237700), and male Beagle dog (Lot #BGL91384), collected on sodium heparin. Plasma was adjusted to pH 7.4 prior to initiating the experiments. DMSO stocks were first prepared for test articles. […] Samples were stored at 4° C. until the end of experiment. After the final time point was sampled, the plate was mixed and then centrifuged at 3,000 rpm for 10 minutes. Calibration standards were prepared in matched matrix. […] Analytical conditions are outlined in Appendix 13-1.
Studies were carried out in mixed-gender human plasma (Lot #AS 1650-2), male Sprague-Dawley rat (Lot #RAT320835), male CD-1 mouse (Lot #MSE260693), and 6 male Beagle dog (Lot #BGL91384), on sodium heparin. Plasma was adjusted to pH 7.4 prior to initiating the experiments. DMSO stocks were first prepared for the test articles. Aliquots of the DMSO solutions were dosed into 700 μL of plasma, which had been pre-warmed to 37° C., at a final test article concentration of 1 μM. […] Samples were stored at 4° C. until the end of the experiment. After the final time point was sampled, the plate was mixed and then centrifuged at 3,000 rpm for 10 minutes. Calibration standards were prepared in matched matrix. […] Analytical conditions are outlined in Appendix 17-1.

in vitro = conditions: for Concentration (μM) of analyte PEA, 0 min / Concentration (μM) of analyte PEA, 10 min / Concentration (μM) of analyte PEA, 20 min / Concentration (μM) of analyte PEA, 30 min / Concentration (μM) of analyte PEA, 60 min / % Remaining of Initial (n = 1), 0 min / % Remaining of Initial (n = 1), 10 min / % Remaining of Initial (n = 1), 20 min / % Remaining of Initial (n = 1), 30 min / % Remaining of Initial (n = 1), 60 min / microsomal CLint at 1 μM / half-life at 1 μM / microsomal CLint / half-life: male, Beagle, dog; for Concentration (μM) of analyte PEA, 0 min / Concentration (μM) of analyte PEA, 10 min / Concentration (μM) of analyte PEA, 20 min / Concentration (μM) of analyte PEA, 30 min / Concentration (μM) of analyte PEA, 60 min / % Remaining of Initial (n = 1), 0 min / % Remaining of Initial (n = 1), 10 min / % Remaining of Initial (n = 1), 20 min / % Remaining of Initial (n = 1), 30 min / % Remaining of Initial (n = 1), 60 min: 1 μM; for % Remaining of Initial (n = 1), 0 min: s9, 0 h; for % Remaining of Initial (n = 1), 10 min: s9, 10 min; for % Remaining of Initial (n = 1), 20 min: s9, 20 min; for % Remaining of Initial (n = 1), 30 min: s9, 0.5 h; for % Remaining of Initial (n = 1), 60 min: s9, 1 h; for microsomal CLint at 1 μM: s9, CLint (mL/min/mg protein)
Experimental: (§2) Reaction mixture, minus cofactors, was prepared as described below. Test article was added into the reaction mixture at a final concentration of 1 μM. […] An aliquot of the reaction mixture (without cofactor cocktail) was equilibrated in a shaking water bath at 37° C. for 3 minutes. The reaction was initiated by the addition of cofactor cocktail, and the mixture was incubated in a shaking water bath at 37° C. Aliquots (100 μL) were withdrawn at 0, 10, 20, 30, and 60 minutes. Test article samples were immediately combined with 300 μL of ice-cold acetonitrile containing 1% formic acid. Control samples were immediately combined with 400 μL of ice-cold 50/50 acetonitrile (ACN)/dH2O containing 0.1% formic acid and internal standard to terminate the reaction. Samples were then mixed and centrifuged to precipitate proteins. Calibration standards were prepared in matched matrix. Samples and standards were assayed by LC-MS/MS using electrospray ionization for both the dosed prodrug and the expected drug (PEA). Analytical conditions are outlined in Appendix 8-1. Test article concentration at each time point was compared to test article concentration at time 0 to determine the percent remaining at each time point. Halflives were calculated using GraphPad software, fitting to a single-phase exponential decay equation.
as §2, with “for 5” for “for 3”, “minutes. Reaction” for “minutes. The reaction”, “and” for “and the”, “both” for “both the”, “Appendix 10-1.” for “Appendix 8-1.”
Reaction mixture, minus cofactors, was prepared as described below. Test article was added into the reaction mixture at a final concentration of 1 μM. […] An aliquot of the reaction mixture (without cofactor cocktail) was equilibrated in a shaking water bath at 37° C. for 3 minutes. Reaction was initiated by the addition of cofactor cocktail, and the mixture was incubated in a shaking water bath at 37° C. Aliquots (100 μL) were withdrawn at 0, 10, 20, 30, and 60 minutes. Test article samples were immediately combined with 300 μL of ice-cold acetonitrile containing 1% formic acid. Control samples were immediately combined with 400 μL of ice-cold 50/50 acetonitrile (ACN)/dH2O containing 0.1% formic acid and internal standard to terminate the reaction. Samples were then mixed and centrifuged to precipitate proteins. Calibration standards were prepared in matched matrix. Samples and standards were assayed by LC-MS/MS using electrospray ionization for both dosed prodrug and expected drug (PEA). Analytical conditions are outlined in Appendix 13-1. Test article concentration at each time point was compared to test article concentration at time 0 to determine the percent remaining at each time point. Halflives were calculated using GraphPad software, fitting to a single-phase exponential decay equation.

SMILES	half-life at 1 μM [1] [h]	% Remaining of Initial (n = 1), 0 min [1] [%]	% Remaining of Initial (n = 1), 15 min [1] [%]	% Remaining of Initial (n = 1), 30 min [1] [%]	% Remaining of Initial (n = 1), 60 min [1] [%]	% Remaining of Initial (n = 1), 120 min [1] [%]	Concentration (μM) of analyte PEA, 0 min (in vitro) [µM]	Concentration (μM) of analyte PEA, 10 min (in vitro) [µM]	Concentration (μM) of analyte PEA, 20 min (in vitro) [µM]	Concentration (μM) of analyte PEA, 30 min (in vitro) [µM]	Concentration (μM) of analyte PEA, 60 min (in vitro) [µM]	% Remaining of Initial (n = 1), 0 min (in vitro) [%]	% Remaining of Initial (n = 1), 10 min (in vitro) [%]	% Remaining of Initial (n = 1), 20 min (in vitro) [%]	% Remaining of Initial (n = 1), 30 min (in vitro) [%]	% Remaining of Initial (n = 1), 60 min (in vitro) [%]	microsomal CLint at 1 μM (in vitro) [µL/min/mg]	half-life at 1 μM (in vitro; s9, Half-life (min)) [h]	other results
CCCCCCCCCCCCCCCC(=O)NCCOC(=O)CCC [Compound I-2]	0.817	100	58	59	46	18	0.11	0.40	0.50	0.53	0.54	100	36	12	4.2	<1.0			
CCCCCCCCCCCCCCCC(=O)NCCOC(=O)CCC(=O)OCC(COC(=O)CCCCCCC)OC(=O)CCCCCCC (centres unmarked) [Compound I-3, PEA-Succinate-Glycerol-Di-Caprylic]	> 2	100	94	79	76	79	0.015	0.23	0.28	0.29	0.50	100	46	46	34	18	36.8	0.317	
CC/C=C\C/C=C\C/C=C\C/C=C\C/C=C\CCCC(=O)OCCNC(=O)CCCCCCCCCCCCCCC [Compound I-5]	> 2	100	85	90	87	83	0.13	0.26	0.25	0.25	0.28	100	50	48	36	36	26.3	0.433	
CCCCC/C=C\C/C=C\CCCCCCCC(=O)OCCNC(=O)CCCCCCCCCCCCCCC [Compound I-6]	1.83	100	93	119	100	29	0.26	0.42	0.38	0.35	0.36	100	54	53	45	38	20.1	0.567	
C[C@]12CC[C@H]3[C@@H](CCC4=CC(=O)CC[C@@]43C)[C@@H]1CC[C@@H]2O [Testosterone, testosterone, reference compound]																			CLin (in vitro; control compound, dog intestinal S9 fraction): <0.0116 ml/min/mg protein; microsomal CLint (in vitro; s9, CLint (ml/min/mg protein), calculated value in parentheses, control compound, dog intestinal S9 fraction, calculated value beyond duration of experiment): 7.22 µL/min/mg; microsomal CLint (in vitro; s9, CLint (ml/min/mg protein), control compound, dog intestinal S9 fraction): < 11.6 µL/min/mg; microsomal CLint (in vitro; s9, CLint, Control Compound, Dog intestinal S9 fraction): < 11.6 µL/min/mg; microsomal CLint (in vitro; s9, CLint, Dog intestinal S9 fraction, control compound): < 11.6 µL/min/mg; half-life (in vitro; s9, Half-life (min), calculated value in parentheses, control compound, dog intestinal S9 fraction, calculated value beyond duration of experiment): 1.6 h; half-life (in vitro; s9, Half-life (min), control compound, dog intestinal S9 fraction): > 1 h; half-life (in vitro; s9, Half-life, Control Compound, Dog intestinal S9 fraction): > 1 h; half-life at 1 μM (in vitro; s9, Half-life, Dog intestinal S9 fraction): > 1 h; half-life (in vitro; s9, Half-life, control compound, dog intestinal S9 fraction): > 1 h

— US11547681B2, “N-acylethanolamide derivatives and uses thereof” (ELIEM THERAPEUTICS, INC., priority 2016, dated 2023)
